Reference: patent US20240197666A1, “DITERPENOID COMPOUNDS THAT ACT ON PROTEIN KINASE C (PKC)” (K-Gen Therapeutics, Inc., priority 2021, published 2024)
Where two headings read alike, the source gives them in different places.

Legend:
[1] = tested on: PANC1 cells; assay: Sphere formation assay; format: cell-based; settings: Homo sapiens, PANC-1, read-out: concentration exhibiting at least 50% inhibition on the sphere forming efficiency
Method: A group of diterpenoid compounds of the present disclosure were tested to assess their effects on blocking formation of spheres from cancer cell lines such as PANC1, a K-Ras mutant pancreatic cell line. Briefly, PANC1 cells were harvested, re-suspended as single cell suspensions, counted and seeded into Ultra Low Attachment Culture 96-well plate (Corning, Cat #3474) at 100 cells/well in 100 μl of complete media (with 10% FBS) containing 2% Matrigel (Corning, Cat #354234) and DMSO or compounds. Six replicates per condition were seeded. The seeded cells were placed in the 37° C. tissue culture incubator. 10 μl of low serum containing media (with 0.1% FBS) was added to each well every week. Spheres formed after 3-4 weeks were counted. Sphere forming efficiency was expressed as percentage of # of spheres/ # of cells seeded.

[2] = tested on: A549 cell line; assay: Proliferation of A549 (CellTiter Glo); format: cell-based; settings: Homo sapiens, read-out: IC50 μM (A549 Cell Line)
Procedure, shortened: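 A549 cells (K-Ras-mutant NSCLC) were seeded at 1,000 cells/well, allowed 24 h to settle, then exposed for 96 h to 3-fold serially diluted compound (final DMSO ≤0.25%). CellTiter Glo luminescence was read, and inhibition was calculated relative to DMSO-only wells. IC50, relative IC50 and % top inhibition came from curve fitting.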

[3] = target: T1, C1b domain of human PKCε (Homo sapiens, UniProt Q02156); assay: biochemical; format: binding; settings: 3H-PDBu competition
T1 construct: Genes encoding C1b domains of human PKCα, δ, ε, θ, and PKD1 (PKCμ) were synthesized; made in house; host or cells: E. coli BL21(DE3)
T1 sequence (Q02156 242-292 limits assumed): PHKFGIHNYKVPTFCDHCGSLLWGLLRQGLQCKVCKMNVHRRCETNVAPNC
Procedure, shortened: (§1)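 Recombinant GST-C1b domains (E. coli-expressed) or full-length human PKC competed against tracer ^3H-PDBu; incubation 10 min at 37°C then 20 min on ice, bound radioligand filter-trapped and scintillation-counted. IC50 fitted and converted to Ki via Cheng-Prusoff using experimentally determined Kd per protein preparation.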

[4] = target: T2, C1b domain of human PKCδ (Homo sapiens, UniProt Q05655); assay: biochemical; format: binding; settings: 3H-PDBu competition
T2 construct: Genes encoding C1b domains of human PKCα, δ, ε, θ, and PKD1 (PKCμ) were synthesized; made in house; host or cells: E. coli BL21(DE3)
T2 sequence (Q05655 230-280 limits assumed): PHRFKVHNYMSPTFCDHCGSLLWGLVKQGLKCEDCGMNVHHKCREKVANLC
Procedure, shortened: as §1

[5] = target: T3, C1b domain of human PKCα (Homo sapiens, UniProt P17252); assay: biochemical; format: binding; settings: 3H-PDBu competition
T3 construct: Genes encoding C1b domains of human PKCα, δ, ε, θ, and PKD1 (PKCμ) were synthesized; made in house; host or cells: E. coli BL21(DE3)

[6] = target: T4, C1b domain of human PKD1 (PKCμ) (Homo sapiens, UniProt Q15139); assay: Competitive 3H-PDBu binding assay, C1b domain of PKD1 (PKCμ); settings: 3H-PDBu competition
T4 construct: Genes encoding C1b domains of human PKCα, δ, ε, θ, and PKD1 (PKCμ) were synthesized; made in house; host or cells: E. coli BL21(DE3)
T4 sequence (Q15139 270-320 limits assumed): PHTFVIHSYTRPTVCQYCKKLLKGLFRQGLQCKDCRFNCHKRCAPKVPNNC
Method: Compounds described in this disclosure were tested for binding affinity to C1b domain of PKC isoforms. Compound binding affinity to C1b domain of PKC isoforms was derived from competitive binding assay using radioactive tracer ^3H-PDBu and recombinant GST-C1b or full-length of human PKC proteins based on modified procedures from Methods in Molecular Biology, vol.
Genes encoding C1b domains of human PKCα, δ, ε, θ, and PKD1 (PKCμ) were synthesized and inserted into pGEX-2TK or pGEX-4T1 vectors for expression and production of GST-C1b proteins in E. coli BL21(DE3) via IPTG induction. The target proteins were purified by glutathione sepharose 4B and followed by ion exchange chromatography if needed to achieve purity >70%. Aliquots of the purified proteins were stored at −80 degree for binding assay (storage buffer: 20 mM Tris pH 8.0, 200 mM NaCl, 10% glycerol, 1 mM DTT).
The plate was incubated at 37° C. on a shaker at 300 rpm for 10 minutes and then put on ice for 20 minutes. […] The bottom of the filter plate was sealed and 50 μL of MicroScint-20 (PerkinElmer) cocktail was added to each well. ^3H-PDBu trapped in each well was counted using PerkinElmer MicroBeta2 Reader. Data were analyzed using GraphPad Prism5 with the model “log(inhibitor) vs. response-variable slope” to fit the IC50, and then IC50 was transformed to Ki using Cheng-Prusoff equation: Ki=IC50/(1+added radio ligand/Kd). Kd is the binding affinity of each protein preparation to ^3H-PDBu, determined experimentally.

[7] = tested on: NFκB-driven transcription in HeLa-NFκB luciferase reporter cell line; assay: NFκB luciferase reporter assay; settings: Homo sapiens, HeLa, 16 h, read-out: NFκB-luc HeLa cells EC50 (μM)
Method: A HeLa-NFκB luciferase reporter cell line (Wuxi Biology) was used to assess a group of PKC activator compounds for their ability to activate NFκB-driven transcription. […] One set of cells was assayed for luciferase activity (Promega, Cat #E1500) and the other set was assayed to determine the number of viable cells (for cell number normalization) using CellTiter-Glo (CTG) kit (Promega, Cat #G7570) according to manufacture's procedures. Normalized data (luciferase value/CTG value) were analyzed using GraphPad Prism5 to calculate EC50 for each compound (see Table 8).
To assess if activation of PKC is required for these compounds to activate NFκB, several PKC inhibitors including broad-spectrum and conventional PKC inhibitors were tested. In the assay described above, PKC inhibitors were added at the same time as the PKC activator compounds.

[8] = tested on: Mino (Lymphoma); assay: Proliferation of Mino; format: cell-based
Procedure, shortened: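 Cells seeded per line (KP-4 800-1000, Panc2.13 3000, Namalwa and Mino 5000-10000 cells/well), 24 h at 37° C, then 96 h with 3-fold serial dilutions of compound, final DMSO ≤0.25%. CellTiter Glo luminescence read; % inhibition vs DMSO-only max, IC50 fitted. Potency also normalized as ratio to comparator K101 across batches.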

[9] = tested on: Namalwa (Lymphoma); assay: Proliferation of Namalwa; format: cell-based
Procedure, shortened: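 Luminescent ATP read-out (CellTiter Glo) after 96 h compound exposure gave % inhibition relative to DMSO-treated cells, from which IC50 was fitted. Seeding densities were line-specific, from 800 to 10000 cells/well. Potency across batches was normalised to reference compound K101.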

[10] = tested on: Panc2.13 (Pancreatic); assay: Proliferation of Panc2.13; format: cell-based
Method: (§2) The diterpenoid compounds were tested in A549, a non-small cell lung cancer cell line harboring a K-Ras activating mutation. Briefly, A549 cells at a density of 1,000 cells/well were seeded in 96-well plates and incubated at 37° C. for 24 hours. A series of different concentrations of compound stocks (500×) were prepared by 3-fold serial dilution in DMSO. These compounds were further diluted in culture media and then added to cells so that the final DMSO concentration was not exceeding 0.25%. After 96 hours of incubation, 50 μL of CellTiter Glo reagent (Promega) was added to each well and luminescence was measured after 10 minutes using EnVision (PerkinElmer). Luminescence from cells treated with DMSO alone was set as Max and % of inhibition was calculated as follows: Inhibition %=(Max-Sample value)/Max×100. Data was analyzed using XL-fit software (ID Business Solutions Ltd.) and IC50, relative IC50, and % of top inhibition was calculated. Some of the compounds in this disclosure were very potent in blocking proliferation of A549 lung cancer cells at low nM range. In addition, potency of inhibiting A549 proliferation correlated well with its binding affinity to PKCs for this series of compounds. In other words, higher affinity binders had stronger inhibitory effects on A549 proliferation. This further support the notion that activation, rather than inhibition, of certain PKC isoforms is required to block proliferation of cancer cells, some of which may harbor K-Ras mutations. This is in sharp contrast to previous literature and common belief that inhibition of PKC is necessary to block cancer cell growth (Kang, 2014, New Journal of Science, 2014:1-36). Data presented here is in agreement with recent findings that many loss-of-function but not gain-of-function mutations of PKC isoforms have been identified in many human cancers (Antal et al., 2015, Cell, 160:489-502).
(§3) The compounds in this disclosure were tested for their potency in blocking proliferation of a few other cancer cells lines, including K-Ras mutant pancreatic cell lines Panc2.13 and KP-4, leukemia cell line HL-60, and lymphoma cell lines Namalwa and Mino. Similar procedures as in Example 67 were followed. Initial cell numbers seeded in 96-well plates were different for different cell lines: 3000 cells/well for Panc2.13; 800-1000 cells/well for KP-4; 5000 cells/well for HL-60; 5000-10000 cells/well for Namalwa and Mino. A ratio of (IC50 of K101)/(IC50 of compound) (data in parenthesis in Table 5) was used to normalize the compound potency from different assay batches to a common comparator K101.

[11] = tested on: KP-4 (Pancreatic); assay: Proliferation of KP-4; format: cell-based; settings: read-out: IC50 KP-4 (Pancreatic)
Method: as §2, §3

[12] = tested on: HL-60 (Leukemia); assay: Proliferation of HL-60; format: cell-based
[13] = tested on: phosphorylation of PKCμ, PKCδ and Erk1/2 in A549 lung cancer cells; assay: Western blot of activation of PKC and downstream target protein in A549 cells; format: cell-based; settings: 3 μM, 30 minutes
Method: According to the methods described in patent (WO/2017/083783) A549 lung cancer cells (˜3 million cells) were seeded in 10 cm tissue culture dishes (or ˜1 million cells in 6 cm dish) and grown overnight. Cells were then treated with different drugs at indicated concentrations for 30 minutes. Cell lysate preparation, protein quantitation, SDS-PAGE, and Western blotting procedures are described (WO/2017/083783). β-actin or Vinculin was used as loading controls. Imagequant LAS4000 (GE) was used to scan membranes if secondary antibodies anti-mouse IgG HRP conjugate or anti-rabbit IgG HRP conjugate (dilutions from 1:2000-1:10000) were used. For ProteinSimple Wes system, manufacture's procedure was followed (ProteinSimple 12-230 kDa Wes Separation Module) for sample preparation, loading, running, and data analysis.
Phosphorylation of these sites has been linked to acute activation or catalytic activity of the PKC isoforms and Erk1/2. High level of phosphorylation indicates strong activation.
A subset of the diterpenoid compounds with good binding affinity to novel PKC isoforms and PKCμ was tested at two different concentrations in A549 cells to assess activation of PKCμ, PKCδ, and Erk1/2 by Western blot analysis. In addition to the phospho-specific antibodies described above, an additional phospho-specific antibody P-PKCδ (S299) (Abcam cat #133456) was also used. This antibody has been shown in the literature (Durgan et al., FEBS Lett. 2007, 581(18):3377-81, Novel phosphorylation site markers of protein kinase C delta activation) to be able to detect activation of PKCδ. K-101 (prostratin, 1 μM) was included as reference compounds.

Structure (SMILES) | IC50 [1] [nM] | IC50 ([2]; A549, 96 h) [µM] | Ki [3] [nM] | Ki [4] [nM] | phosphorylation of PKCμ, PKCδ and Erk1/2 [13] | other results
CC1=C[C@H]2[C@@]3(O)[C@H](C)C[C@]4(OC(=O)[C@@H](N)C(C)(C)C)[C@H]([C@@H]3C=C(CO)C[C@]2(O)C1=O)C4(C)C | ≤ 1500 | 0.2 to 0.6 | 60 to 100 | 10 to 30 |  | 
CC1=C[C@H]2[C@@]3(O)[C@H](C)C[C@]4(OC(=O)[C@@H](N)C/C=C/c5ccccc5)[C@H]([C@@H]3C=C(CO)C[C@]2(O)C1=O)C4(C)C |  |  |  | 5 to 10 |  | Ki [5]: 100 to 200 nM; IC50 ([2]; A549, 96 hours, CellTiter Glo): 0.06 to 0.1 µM; Ki [6]: < 5 nM
CC1=C[C@H]2[C@@]3(O)[C@H](C)C[C@]4(OC(=O)C(C)(C)C)[C@H]([C@@H]3C=C(CO)C[C@]2(O)C1=O)C4(C)C | ≤ 150 | 0.06 to 0.1 | 10 to 30 | 10 to 30 |  | EC50 [7]: 0.06 to 0.1 µM; ratio (IC50 of K101)/(IC50 of compound) Mino [8]: 6.82; IC50 ([8]; Homo sapiens, MINO, read-out: IC50 Mino (Lymphoma)): 10 to 30 nM; ratio (IC50 of K101)/(IC50 of compound) Namalwa [9]: 1.38; IC50 ([9]; read-out: IC50 Namalwa (Lymphoma)): 30 to 60 nM; ratio (IC50 of K101)/(IC50 of compound) Panc2.13 [10]: 6.29; IC50 ([10]; read-out: IC50 Panc2.13 (Pancreatic)): 100 to 200 nM; IC50 [11]: 100 to 200 nM; ratio (IC50 of K101)/(IC50 of compound) HL-60 [12]: 5.29; IC50 ([12]; Homo sapiens, HL-60, 96 h, read-out: IC50 HL-60 (Leukemia)): 100 to 600 nM
CC1=C[C@H]2[C@@]3(O)[C@H](C)C[C@]4(OC(=O)CCc5ccncc5)[C@H]([C@@H]3C=C(CO)C[C@]2(O)C1=O)C4(C)C |  | 1 to 2 |  |  | induced phosphorylation | 
CC1=C[C@H]2[C@@]3(O)[C@H](C)C[C@]4(OC(=O)CCc5ccccn5)[C@H]([C@@H]3C=C(CO)C[C@]2(O)C1=O)C4(C)C |  | 0.6 to 1 |  |  | induced phosphorylation | 
